Test results published in patent publication US20190117770A1, “USES OF IMMUNOCONJUGATES TARGETING CD138” (Biotest AG, priority 2011, published 2019).
Where “and” joins values, the source holds several entries; their conditions need not be identical. Equal entries are not always repeated. Entries after “also recorded” stand apart in the source; their conditions may differ.

Assays:
[1] = Plasma level of BT062 (PK ELISA), repeated single dose; assay type: in vivo, human; settings: for effective Cmax (cycle 1) mean: 0-2 h post infusion; for effective Cmax (cycle 4) mean: day 64
Method: Theoretical Cmax was Calculated According to the Following Assumed Parameters: […]
The same evaluation was performed during treatment cycle 4. […] The amount of BT062 in the plasma is determined via a PK ELISA method described as follows:
The wells of a microtiter plate are first coated with anti-maytansinoid (anti-DM4) antibody overnight at 2-8° C. and after blocking with assay buffer (0.5% BSA/TBS) incubated on the next day with plasma samples. These are diluted beforehand at least 1:100 in assay buffer. […] After incubation, unbound material is removed by washing. […] Unbound secondary antibody is removed by another washing step. After this, TMB substrate solution is pipetted into all the wells. […] The color reaction is ended using a stop solution, which causes the color to change from blue to yellow. The final measurement is carried out with a photometer at a wavelength of 450 nm.
The relationship between concentration and optical density is evaluated using Magellan V6.6 software.

[2] = test system: metastatic patient tissues derived from a bladder tumor; assay: Metastatic bladder tumor xenograft; assay type: in vivo, NMRI (nude) mice; settings: both dose groups (4 mg/kg and 23.85 mg/kg once per week)
Text: (§1) These tumors display similar characteristics as the patient tumors, since they are passaged in mice at low numbers, to retain original characteristics.
To investigate metastatic tumors, NMRI (nude) mice were implanted with a metastatic patient tissues derived from a bladder tumor (determined via IHC analysis as CD138 strong positive).

[3] = test system: MOLP8 multiple myeloma cells; assay: MOLP8 xenograft, combination BT062 and VELCADE; assay type: in vivo, mice
Text: The ACTIVITY RATING is another measurement for the effects of a combination. This rating is based on the Log10 cell kill
where (T-C) or tumor growth delay, is the median time in days required for the treatment group (T) and the control group (C) tumours, to reach a predetermined size (600 mm^3).

[4] = test system: relapsed/refractory multiple myeloma; assay: Human trial, repeated multiple dose regimen (days 1, 8, 15)
Text: This includes, e.g., in alternating 2 and 3 day intervals, in 4 day intervals, in progressive increasing intervals such as on day 1, 3, 6, 10, 15. […] Such a treatment cycle, including a resting period, is also referred to herein as “full” or “complete” treatment cycle. A treatment free period describes the time during which no treatment is given. Thus, in the above example, the treatment free period would start at day 16. At the beginning of the resting period, no immunoconjugate is administered to the patient.
Generally, all toxicities of at least grade 3 are defined as DLT. Further study specific DLT criteria which can be employed are listed below: Nonhematological: • Alopecia, of any grade, is not considered a DLT • Grade 3-4 nausea and vomiting lasting longer than 3 days despite optimal antiemetic medication.^a • Grade 3-4 diarrhea lasting longer than 3 days despite optimal antidiarrheal medication.^a a. Optimal antidiarrheal and antiemetic treatment were determined by each investigator.
These DLTs may occur in a first or a subsequent treatment cycle. […] Preferably DLTs in the first cycle are considered.
Initially, the response to treatment was evaluated at day 1 of treatment cycles 1-3 by M-protein quantification using immunoelectrophoresis (IEP) and immunofixation electrophoresis (IFE) from serum and 24-hour urine collection. […] A general quantitative immunoglobulin assessment was done together with M-protein quantification.
Serum samples were used to perform FLC assays to examine multiple myeloma subjects with no detectable M-protein (nonsecretory/oligosecretory myeloma) and to allow for detection of early response to treatment. Therefore serum FLC assays were performed on day 1, 2, 3, and 8 of treatment cycle 1, on day 2, 3, 8 and 15 of cycle 4, as well as on day 1, 8 and 15 of all other treatment cycles. M-protein and FLC were be analyzed at the screening and at the close-out visit. Evaluations at day 1 of cycle 1 served as baseline values.

[5] = test system: Lung carcinoma; assay: Lung carcinoma xenograft; assay type: in vivo, NMRI (nude) mice; settings: both dose groups (4 mg/kg and 23.85 mg/kg once per week)
Method: as §1
NMRI (nude) mice are implanted with a Lung carcinoma (determined via IHC analysis as CD138 strong positive).
Tumor diameters are measured two times a week.

[6] = test system: CD138+ MOLP-8 cells; assay: WST cell viability assay; assay type: cell-based
Method: CD138^+ MOLP-8 cells were seeded in flat bottom plates at 3000 cells/well. CD138^− BJAB control cells were seeded at 1000 cells/well. WST reagent (water-soluble tetrazolium salt, ROCHE) was added in order to measure cell viability according to the manufacturer's instruction (ROCHE). The reagent was incubated for 7.5 h on MOLP-8 cells and for 2 h on BJAB cells. The fraction of surviving cells was calculated based on the optical densities measured in a microplate reader using standard procedures.

Substance: BT062
- percentage of theoretical Cmax (cycle 1) ([1]; 10 mg/m^2): 15%
- effective Cmax (cycle 1) mean ([1]; 10 mg/m^2): 1110 ng/mL and 1100 ng/mL
- percentage of theoretical Cmax (cycle 1) ([1]; 20 mg/m^2): 20%
- percentage of theoretical Cmax (cycle 4) ([1]; 20 mg/m^2): 49%
- effective Cmax (cycle 1) mean ([1]; 20 mg/m^2): 2900 ng/mL
- effective Cmax (cycle 4) mean ([1]; 20 mg/m^2): 7060 ng/mL
- percentage of theoretical Cmax (cycle 1) ([1]; 40 mg/m^2): 16%
- percentage of theoretical Cmax (cycle 4) ([1]; 40 mg/m^2): 9%
- effective Cmax (cycle 1) mean ([1]; 40 mg/m^2): 4310 ng/mL
- effective Cmax (cycle 4) mean ([1]; 40 mg/m^2): 2510 ng/mL
- percentage of theoretical Cmax (cycle 1) ([1]; 80 mg/m^2): 34%
- percentage of theoretical Cmax (cycle 4) ([1]; 80 mg/m^2): 26%
- effective Cmax (cycle 1) mean ([1]; 80 mg/m^2): 18800 ng/mL
- effective Cmax (cycle 4) mean ([1]; 80 mg/m^2): 14200 ng/mL
- percentage of theoretical Cmax (cycle 1) ([1]; 120 mg/m^2): 26.5%
- effective Cmax (cycle 1) mean ([1]; 120 mg/m^2): 21400 ng/mL
- percentage of theoretical Cmax (cycle 1) ([1]; 160 mg/m^2): 74.5%
- percentage of theoretical Cmax (cycle 4) ([1]; 160 mg/m^2): 71%
- effective Cmax (cycle 1) mean ([1]; 160 mg/m^2): 81200 ng/mL
- effective Cmax (cycle 4) mean ([1]; 160 mg/m^2): 77400 ng/mL
- percentage of theoretical Cmax (cycle 1) ([1]; 200 mg/m^2): 60%
- effective Cmax (cycle 1) mean ([1]; 200 mg/m^2): 82000 ng/mL
- tumor response [2]: Complete remission
- (T − C) ([3]; BT062 100 ug/kg): 5.5 days
- Regressions Complete ([3]; BT062 100 ug/kg): 0/6
- Regressions Partial ([3]; BT062 100 ug/kg): 0/6
- Result ([3]; BT062 100 ug/kg): Inactive
- Tumor free survivors day 67 ([3]; BT062 100 ug/kg): 0/6
- log cell kill ([3]; BT062 100 ug/kg): 0.5
- T/C (%) ([3]; BT062 100 ug/kg, Day 1): 43%
- (T − C) ([3]; BT062 200 ug/kg): 14.5 days
- Regressions Complete ([3]; BT062 200 ug/kg): 0/6
- Regressions Partial ([3]; BT062 200 ug/kg): 1/6
- Result ([3]; BT062 200 ug/kg): Active
- Tumor free survivors day 67 ([3]; BT062 200 ug/kg): 0/6
- log cell kill ([3]; BT062 200 ug/kg): 1.3
- T/C (%) ([3]; BT062 200 ug/kg, Day 1): 11%
- (T − C) ([3]; BT062 400 ug/kg): 31.5 days
- Regressions Complete ([3]; BT062 400 ug/kg): 2/6
- Regressions Partial ([3]; BT062 400 ug/kg): 4/6
- Result ([3]; BT062 400 ug/kg): highly active (A Log10 cell kill of higher than 2.8)
- Tumor free survivors day 67 ([3]; BT062 400 ug/kg): 0/6
- log cell kill ([3]; BT062 400 ug/kg): 2.8
- T/C (%) ([3]; BT062 400 ug/kg, Day 1): 7%
- (T − C) ([3]; last line: BT062 400 ug/kg): 36.5 days
- Regressions Complete ([3]; last line: BT062 400 ug/kg): 0/6
- Regressions Partial ([3]; last line: BT062 400 ug/kg): 6/6
- Result ([3]; last line: BT062 400 ug/kg): highly active (A Log10 cell kill of higher than 2.8)
- Tumor free survivors day 67 ([3]; last line: BT062 400 ug/kg): 0/6
- log cell kill ([3]; last line: BT062 400 ug/kg): 3.2
- T/C (%) ([3]; last line: BT062 400 ug/kg Day 1): 7%
- DLTs ([4]; 40 mg/m^2 weekly, 14 administrations): no DLTs
- response ([4]; 80 mg/m^2 weekly, Patient 12): partial response
- progression free survival ([4]; 100 mg/m^2 weekly, patient 15 (FIG. 23)): more than 3 months
- response ([4]; 120 mg/m^2 weekly, patient 19 (FIG. 24)): unconfirmed minor response
- patients displaying DLT ([4]; 140 mg/m^2 weekly): 1 out of 6
- patients displaying DLTs ([4]; 160 mg/m^2 weekly): two out of the four and 2 out of 4
- response ([4]; 160 mg/m^2 weekly, patient 31): minor response
- M-protein decrease ([4]; 160 mg/m^2 weekly, patient 31 (FIG. 25)): more than 25%
- disease status ([4]; 3 × 50 mg/m^2, over six cycles (Patient 6)): no disease progression; also recorded: At least stable disease could be achieved
- serum FLC level ([4]; 3 × 65 mg/m^2, after a single treatment cycle (FIG. 21)): A strong decrease of the serum FLC level
- Tolerability ([4]; 3 × 80 mg/m^2, aggregate 240 mg/m^2 in three weeks): well tolerated
- reduction of urine M protein ([4]; 3 × 120 mg/m^2, after 3rd, 7th and 10th cycle): 50% achieved after 3rd, 7th and 10th cycle
- patients with progression free survival of at least 168 days ([4]; FIG. 18): four
- patients with progression free survival of at least 300 days ([4]; FIG. 18): two
- treatment without disease progression ([4]; Patient 8 (FIG. 21)): 168 days
- patients (out of 32) with progression free survival of at least 3 months ([4]; all dose levels (FIG. 18)): 14
- DLT (palmar-plantar erythrodysaethesia syndrome), patients ([4]; at 420 (3 × 140 mg/m^2), out of six): toxicities (up to now), one
- MAD ([4]; days 1, 8, 15): 160 mg/m^2
- DLTs ([4]; three 21 day cycles of 3×100 mg/m^2): No DLTs
- DLTs ([4]; three 21 day cycles of 3×120 mg/m^2): No DLTs
- tumor response [5]: Complete remission
- cytotoxicity after preincubation with molar excess of unconjugated nBT062 ([6]; FIG. 7 (D)): substantially blocked
- cytotoxic activity ([6]; five days, FIG. 7): very similar
